# pIC50: −log10 of the molar value.
# Key:
# [1] = test system: iPS cells (WT1+ epicardial cells); assay: Epicardial (WT1+) progenitor induction from iPS cells, CHIR dose titration / ABC; type: cell-based, human
# Description: Cardiac mesoderm cells were then dissociated and contacted with a low concentration of Wnt inhibitor, XAV939, (Table 4) for two days to be specified into a WT1 epicardial lineage (FIG. 3A). The percentage of epicardial cells were measured in single CHIR, ABC, and double CHIR conditions. Epicardial induction with single CHIR or ABC step produced a mixed population of epicardial cells and cardiomyocytes. The percentage of WT1+ epicardial cells ranged from 30% WT1 to 90% WT1. These epicardial progenitors were used directly for cardiac fibroblast induction without additional passaging or purification of epicardial cells. A dose titration of CHIR was performed on iPS cells. […] A dose of 6 μM CHIR on Day 1 generated a population of 60% WT1 epicardial progenitor cells that have characteristic cobblestone morphology by Day 14 (FIG. 3C). […] When Activin and BMP were added with the single CHIR, the epicardial cells retained a flattened cobble stone morphology and dark, round nucleus. Cell-cell borders became less pronounced. There was no need to passage the epicardial cells. […] This was visible by increased cell numbers, decreased cell size, and more elongated morphology.
# [2] = test system: ROCK1/ROCK2; conditions: competing with ATP; cited from earlier work
# [3] = test system: isogenic tri-culture cardiac microtissues (iPSC-derived cardiomyocytes, endothelial cells, cardiac fibroblasts); assay: Calcium transient / inotropic response of isogenic tri-culture cardiac microtissues; type: cell-based, human; conditions: for calcium amplitude inotropic response with increased CF content: DIV 14, 10,000 total cells, 20% endothelial cells, varying cardiac fibroblast content
# From the text: For the cardiac tri-culture microtissue assay, cryopreserved iPSC-derived cell types were combined in a specific ratio and formed into microtissues in microwell plates (FIG. 5A). Microtissues containing 65% iCell Cardiomyocytes, 20% iCell Endothelial cells, and 15% iPSC derived cardiac fibroblasts are shown in FIG. 5B. After 1-2 days, the microtissues were contracting.
# Microtissues were fed a co-culture medium (Table 8) to support all three cell types. […] Microtissues were generated from three donor lines 11713, 01279, and 01434. Microtissues contained either iPSC-derived cardiomyocytes only or were tri-culture, containing isogenic iPSC-derived cardiomyocytes, iPSC-derived endothelial cells, and iPSC-derived cardiac fibroblasts. All microtissues were assayed for response to isoproterenol on Day 14 of culture. […] This response was in tri-culture microtissues from all three donor lines, in two independently produced lots of cardiac fibroblasts from donor 01434, and in microtissues containing cardiac fibroblasts from two independently derived clones from donor 11713 (11713.008 and 11713.847).
# Response to dobutamine (DOB), digoxin (DIG), isoproterenol (ISO), and epinephrine (EPI) were assessed at DIV 14 on cardiac tri-culture microtissues comprised of 10,000 total cells and 20% iCell Endothelial Cells and iCell Cardiomyocytes and varying concentrations of iPSC derived cardiac fibroblasts (CF). […] (FIG. 6B).
# (§1) Tri-culture microtissues were made from Normal Healthy Control (NHC) and isogenic LMNA-L35P iPSC-derived cell types. Fourteen days post microtissue formation, microtissues were challenged with isoproterenol.
# [4] = test system: isogenic LMNA-L35P iPSC-derived tri-culture microtissues; assay: Calcium transient response of LMNA-L35P disease model tri-culture microtissues; type: cell-based, human; conditions: LMNA-L35P disease model microtissue; fourteen days post formation
# From the text: as §1
# [5] = test system: iPSC derived cardiac fibroblasts; assay: Activation of iPSC-derived cardiac fibroblasts with TGFβ; type: cell-based, human
# Description: The cardiac fibroblasts were thawed and plated on vitronectin-coated plates at 10 k/cm^2 and activated with TGFβ. TGFβ was added at 20 ng/mL or 40 ng/mL to activate cardiac fibroblasts on Day 2, with a media change on Day 4. On Day 5, media supernatants were collected and analyzed for fibronectin secretion by a Human FN ELISA Kit Cat #BMS2028. On Day 3 and Day 5, cardiac fibroblasts were harvested and counted by ViCell-XR. After 5 days cells were collected for flow cytometry.
# [6] = test system: epicardial progenitors from the ABC method; assay: Cardiac fibroblast differentiation in serum with varying basic FGF, CD29 positive cells; type: cell-based, human; conditions: increasing concentrations of basic FGF, serum-containing medium
# Description: Cardiac fibroblasts were induced in serum containing conditions on Day 25. The cells were fed DMEM-Low glucose, 10% FBS, Ascorbic Acid, and 200 ng/mL basic FGF and purified through successive passaging (Table 6). Cardiac fibroblasts were >85% positive for TE-7 and CD29 and quiescent (i.e., less than 5% αSMA) (FIG. 4A).
compound,measurement,setting,value
"Cc1c[nH]c(-c2cnc(NCCNc3ccc(C#N)cn3)nc2-c2ccc(Cl)cc2Cl)n1 [CHIR, CHIR99021]",WT1 epicardial progenitor cells,"[1]; 6 μM CHIR on Day 1, single CHIR method",60%
same,effect of increasing dose on percentage of WT1+ epicardial cells,"[1]; dose on Day 1, single CHIR method, read on Day 9",did not increase the percentage of WT1+ epicardial cells
C[C@@H](N)[C@H]1CC[C@H](C(=O)Nc2ccncc2)CC1 [Y-27632],pIC50,[2],6.10
C[C@H]1O[C@@H](O[C@H]2[C@@H](O)C[C@H](O[C@H]3[C@@H](O)C[C@H](O[C@H]4CC[C@@]5(C)[C@H](CC[C@@H]6[C@@H]5C[C@@H](O)[C@]5(C)[C@@H](C7=CC(=O)OC7)CC[C@]65O)C4)O[C@@H]3C)O[C@@H]2C)C[C@H](O)[C@@H]1O [digoxin],calcium amplitude inotropic response with increased CF content,[3],increased calcium amplitude inotropic response
CC(CCc1ccc(O)cc1)NCCc1ccc(O)c(O)c1 (centres unmarked) [dobutamine],calcium amplitude inotropic response with increased CF content,[3],increased calcium amplitude inotropic response
CNC[C@H](O)c1ccc(O)c(O)c1 [epinephrine],calcium amplitude inotropic response with increased CF content,[3],increased calcium amplitude inotropic response
CC(C)NCC(O)c1ccc(O)c(O)c1 (centres unmarked) [isoproterenol],calcium transient amplitude,"[3]; 100 nM isoproterenol, Normal Healthy Control microtissues, fourteen days post microtissue formation",increase in calcium transient amplitude
same,calcium transient amplitude response to isoproterenol,"[3]; Day 14 of culture, three donor lines",increase in calcium transient amplitude
same,beat rate by calcium transient,[3]; in the presence of isoproterenol,increase in beat rate
same,response to isoproterenol (calcium transient amplitude),[4],did not respond
TGFβ,gene expression by quantitative real-time PCR,"[5]; 20 ng/mL TGFβ for 4 days, single CHIR and double CHIR cardiac fibroblasts","increased POSTN, DDR2, COL1A1, COL1A2, GJA1, and ACTA2 expression"
same,alpha smooth muscle actin expressing population (flow cytometry),"[5]; TGFβ 20 ng/mL or 40 ng/mL added Day 2, cells collected after 5 days",alpha smooth muscle actin expressing population was seen to emerge
same,fibronectin secretion,[5]; cardiac fibroblasts from serum-containing and serum-free induction,increased fibronectin secretion
basic FGF: basic fibroblast growth factor used for cardiac fibroblast induction,percentage of CD29 positive cells,[6],increase the percentage of CD29 positive cells
